In patent publication US5843889A, “Glycopeptide antibiotic derivatives” (Eli Lilly and Company, priority 1997, dated 1998):
≈ marks a conversion by molar mass, not a printed value.

Tests used:
Experiment in all cases: MIC, standard broth micro-dilution assay
Format in all cases: cell-based
[1] = test system: Entercoccus gallinarum 245
Method: (§1) The formula I compounds have in vitro and in vivo activity against Gram-positive pathogenic bacteria. The MIC's were determined using a standard broth micro-dilution assay.

[2] = test system: Entercoccus faecalis 276
Method: as §1

[3] = test system: Entercoccus faecalis 2041
Method: as §1

MIC [1] [µg/mL] | MIC [2] [µg/mL] | MIC [3] [µg/mL] | SMILES
4 (≈ 2.23 µM) | 0.25 (≈ 0.139 µM) | ≤ 0.06 | CNC(CC(C)C)C(=O)NC1C(=O)NC(CC(N)=O)C(=O)NC2C(=O)NC3C(=O)NC(C(=O)NC(C(=O)O)c4cc(O)cc(O)c4-c4cc3ccc4O)C(OC3CC(C)(N)C(O)C(C)O3)c3ccc(c(Cl)c3)Oc3cc2cc(c3OC2OC(CO)C(O)C(O)C2OC2CC(C)(NCCCCCCCCOc3ccccc3)C(O)C(C)O2)Oc2ccc(cc2Cl)C1O (stereo not drawn) [Compound 195, 8-phenoxyoctyl]
1 (≈ 0.548 µM) | 1 (≈ 0.548 µM) | ≤ 0.06 | CNC(CC(C)C)C(=O)NC1C(=O)NC(CC(N)=O)C(=O)NC2C(=O)NC3C(=O)NC(C(=O)NC(C(=O)O)c4cc(O)cc(O)c4-c4cc3ccc4O)C(OC3CC(C)(N)C(O)C(C)O3)c3ccc(c(Cl)c3)Oc3cc2cc(c3OC2OC(CO)C(O)C(O)C2OC2CC(C)(NCc3ccc(OC)c(OCC4CCCCC4)c3)C(O)C(C)O2)Oc2ccc(cc2Cl)C1O (stereo not drawn) [Compound 142, 3-[cyclohexylmethoxy]-4-methoxybenzyl]
4 (≈ 2.22 µM) | 0.25 (≈ 0.139 µM) | ≤ 0.06 | CNC(CC(C)C)C(=O)NC1C(=O)NC(CC(N)=O)C(=O)NC2C(=O)NC3C(=O)NC(C(=O)NC(C(=O)O)c4cc(O)cc(O)c4-c4cc3ccc4O)C(OC3CC(C)(N)C(O)C(C)O3)c3ccc(c(Cl)c3)Oc3cc2cc(c3OC2OC(CO)C(O)C(O)C2OC2CC(C)(NCc3ccc(-c4ccccc4[N+](=O)[O-])cc3)C(O)C(C)O2)Oc2ccc(cc2Cl)C1O (stereo not drawn) [Compound 102, 4-[2-nitrophenyl]benzyl]
4 (≈ 2.34 µM) | ≤ 0.06 | ≤ 0.06 | CNC(CC(C)C)C(=O)NC1C(=O)NC(CC(N)=O)C(=O)NC2C(=O)NC3C(=O)NC(C(=O)NC(C(=O)O)c4cc(O)cc(O)c4-c4cc3ccc4O)C(OC3CC(C)(N)C(O)C(C)O3)c3ccc(c(Cl)c3)Oc3cc2cc(c3OC2OC(CO)C(O)C(O)C2OC2CC(C)(NCc3ccc(C)c(C)c3)C(O)C(C)O2)Oc2ccc(cc2Cl)C1O (stereo not drawn) [Compound 76, 3,4-dimethylbenzyl]
2 (≈ 1.11 µM) | 0.5 (≈ 0.276 µM) | ≤ 0.06 | CNC(CC(C)C)C(=O)NC1C(=O)NC(CC(N)=O)C(=O)NC2C(=O)NC3C(=O)NC(C(=O)NC(C(=O)O)c4cc(O)cc(O)c4-c4cc3ccc4O)C(OC3CC(C)(N)C(O)C(C)O3)c3ccc(c(Cl)c3)Oc3cc2cc(c3OC2OC(CO)C(O)C(O)C2OC2CC(C)(NCc3ccc(Oc4ccc(Cl)cc4)cc3)C(O)C(C)O2)Oc2ccc(cc2Cl)C1O (stereo not drawn) [Compound 240, 4-[4-chlorophenoxy]benzyl]
≤ 0.06 | ≤ 0.06 | ≤ 0.06 | CNC(CC(C)C)C(=O)NC1C(=O)NC(CC(N)=O)C(=O)NC2C(=O)NC3C(=O)NC(C(=O)NC(C(=O)O)c4cc(O)cc(O)c4-c4cc3ccc4O)C(OC3CC(C)(N)C(O)C(C)O3)c3ccc(c(Cl)c3)Oc3cc2cc(c3OC2OC(CO)C(O)C(O)C2OC2CC(C)(NCc3cccc4ccccc34)C(O)C(C)O2)Oc2ccc(cc2Cl)C1O (stereo not drawn) [Compound 3, 1-naphthylmethyl]
4 (≈ 2.3 µM) | ≤ 0.06 | ≤ 0.06 | CNC(CC(C)C)C(=O)NC1C(=O)NC(CC(N)=O)C(=O)NC2C(=O)NC3C(=O)NC(C(=O)NC(C(=O)O)c4cc(O)cc(O)c4-c4cc3ccc4O)C(OC3CC(C)(N)C(O)C(C)O3)c3ccc(c(Cl)c3)Oc3cc2cc(c3OC2OC(CO)C(O)C(O)C2OC2CC(C)(NCCCc3ccc(OC)cc3)C(O)C(C)O2)Oc2ccc(cc2Cl)C1O (stereo not drawn) [Compound 175, 3-[4-methoxyphenyl]propyl]
1 (≈ 0.553 µM) | ≤ 0.06 | ≤ 0.06 | CNC(CC(C)C)C(=O)NC1C(=O)NC(CC(N)=O)C(=O)NC2C(=O)NC3C(=O)NC(C(=O)NC(C(=O)O)c4cc(O)cc(O)c4-c4cc3ccc4O)C(OC3CC(C)(N)C(O)C(C)O3)c3ccc(c(Cl)c3)Oc3cc2cc(c3OC2OC(CO)C(O)C(O)C2OC2CC(C)(NCc3cccc(Oc4ccc(Cl)cc4)c3)C(O)C(C)O2)Oc2ccc(cc2Cl)C1O (stereo not drawn) [Compound 86]
32 (≈ 17.7 µM) | 8 (≈ 4.43 µM) | 2 (≈ 1.11 µM) | CCCCCCCC#Cc1ccc(CN[C@@]2(C)C[C@H](O[C@H]3[C@H](Oc4c5cc6cc4Oc4ccc(cc4Cl)[C@@H](O[C@H]4C[C@](C)(N)[C@@H](O)[C@H](C)O4)[C@@H]4NC(=O)[C@H](NC(=O)[C@@H]6NC(=O)[C@H](CC(N)=O)NC(=O)[C@H](NC(=O)[C@@H](CC(C)C)NC)[C@H](O)c6ccc(c(Cl)c6)O5)c5ccc(O)c(c5)-c5c(O)cc(O)cc5[C@@H](C(=O)O)NC4=O)O[C@H](CO)[C@@H](O)[C@@H]3O)O[C@@H](C)[C@@H]2O)cc1 [Compound 232, 4-[1-nonynyl]benzyl]
4 (≈ 2.21 µM) | 1 (≈ 0.553 µM) | 0.25 (≈ 0.138 µM) | CNC(CC(C)C)C(=O)NC1C(=O)NC(CC(N)=O)C(=O)NC2C(=O)NC3C(=O)NC(C(=O)NC(C(=O)O)c4cc(O)cc(O)c4-c4cc3ccc4O)C(OC3CC(C)(N)C(O)C(C)O3)c3ccc(c(Cl)c3)Oc3cc2cc(c3OC2OC(CO)C(O)C(O)C2OC2CC(C)(NCCCCCCCCCCc3ccccc3)C(O)C(C)O2)Oc2ccc(cc2Cl)C1O (stereo not drawn) [Compound 197, 10-phenyldecyl]
1 (≈ 0.55 µM) | ≤ 0.06 | ≤ 0.06 | CNC(CC(C)C)C(=O)NC1C(=O)NC(CC(N)=O)C(=O)NC2C(=O)NC3C(=O)NC(C(=O)NC(C(=O)O)c4cc(O)cc(O)c4-c4cc3ccc4O)C(OC3CC(C)(N)C(O)C(C)O3)c3ccc(c(Cl)c3)Oc3cc2cc(c3OC2OC(CO)C(O)C(O)C2OC2CC(C)(NCc3ccc(NC(=O)c4ccc(F)cc4)cc3)C(O)C(C)O2)Oc2ccc(cc2Cl)C1O (stereo not drawn) [Compound 193, 4-[(4-fluorobenzoyl)amino]benzyl]
2 (≈ 1.1 µM) | 1 (≈ 0.55 µM) | ≤ 0.06 | CCOC(c1ccccc1)c1ccc(CNC2(C)CC(OC3C(Oc4c5cc6cc4Oc4ccc(cc4Cl)C(OC4CC(C)(N)C(O)C(C)O4)C4NC(=O)C(NC(=O)C6NC(=O)C(CC(N)=O)NC(=O)C(NC(=O)C(CC(C)C)NC)C(O)c6ccc(c(Cl)c6)O5)c5ccc(O)c(c5)-c5c(O)cc(O)cc5C(C(=O)O)NC4=O)OC(CO)C(O)C3O)OC(C)C2O)cc1 (stereo not drawn) [Compound 126]
1 (≈ 0.553 µM) | 2 (≈ 1.11 µM) | 0.5 (≈ 0.277 µM) | CNC(CC(C)C)C(=O)NC1C(=O)NC(CC(N)=O)C(=O)NC2C(=O)NC3C(=O)NC(C(=O)NC(C(=O)O)c4cc(O)cc(O)c4-c4cc3ccc4O)C(OC3CC(C)(N)C(O)C(C)O3)c3ccc(c(Cl)c3)Oc3cc2cc(c3OC2OC(CO)C(O)C(O)C2OC2CC(C)(NCc3ccc4ccc5cccc6ccc3c4c56)C(O)C(C)O2)Oc2ccc(cc2Cl)C1O (stereo not drawn) [Compound 16, 1-pyrenylmethyl]
1 (≈ 0.55 µM) | 1 (≈ 0.55 µM) | 0.25 (≈ 0.138 µM) | CNC(CC(C)C)C(=O)NC1C(=O)NC(CC(N)=O)C(=O)NC2C(=O)NC3C(=O)NC(C(=O)NC(C(=O)O)c4cc(O)cc(O)c4-c4cc3ccc4O)C(OC3CC(C)(N)C(O)C(C)O3)c3ccc(c(Cl)c3)Oc3cc2cc(c3OC2OC(CO)C(O)C(O)C2OC2CC(C)(NCc3c4ccccc4c(Cl)c4ccccc34)C(O)C(C)O2)Oc2ccc(cc2Cl)C1O (stereo not drawn) [Compound 18, 9-[10-chloro]anthranylmethyl]
12 (≈ 6.52 µM) | 2 (≈ 1.09 µM) | ≤ 0.06 | CNC(CC(C)C)C(=O)NC1C(=O)NC(CC(N)=O)C(=O)NC2C(=O)NC3C(=O)NC(C(=O)NC(C(=O)O)c4cc(O)cc(O)c4-c4cc3ccc4O)C(OC3CC(C)(N)C(O)C(C)O3)c3ccc(c(Cl)c3)Oc3cc2cc(c3OC2OC(CO)C(O)C(O)C2OC2CC(C)(NCc3cccc(OCc4ccc5ccccc5n4)c3)C(O)C(C)O2)Oc2ccc(cc2Cl)C1O (stereo not drawn) [Compound 125, 3-[2-quinoylmethoxy]benzyl]
≤ 0.06 | 1 (≈ 0.561 µM) | 0.5 (≈ 0.28 µM) | CNC(CC(C)C)C(=O)NC1C(=O)NC(CC(N)=O)C(=O)NC2C(=O)NC3C(=O)NC(C(=O)NC(C(=O)O)c4cc(O)cc(O)c4-c4cc3ccc4O)C(OC3CC(C)(N)C(O)C(C)O3)c3ccc(c(Cl)c3)Oc3cc2cc(c3OC2OC(CO)C(O)C(O)C2OC2CC(C)(NCc3cc4ccccc4c4ccccc34)C(O)C(C)O2)Oc2ccc(cc2Cl)C1O (stereo not drawn) [Compound 11, 9-phenanthranylmethyl]
4 (≈ 2.25 µM) | 0.5 (≈ 0.281 µM) | 0.25 (≈ 0.141 µM) | CCCCCC#Cc1ccc(CNC2(C)CC(OC3C(Oc4c5cc6cc4Oc4ccc(cc4Cl)C(OC4CC(C)(N)C(O)C(C)O4)C4NC(=O)C(NC(=O)C6NC(=O)C(CC(N)=O)NC(=O)C(NC(=O)C(CC(C)C)NC)C(O)c6ccc(c(Cl)c6)O5)c5ccc(O)c(c5)-c5c(O)cc(O)cc5C(C(=O)O)NC4=O)OC(CO)C(O)C3O)OC(C)C2O)cc1 (stereo not drawn) [Compound 227, 4-[1-heptynyl]benzyl]
2 (≈ 1.08 µM) | ≤ 0.06 | ≤ 0.06 | CNC(CC(C)C)C(=O)NC1C(=O)NC(CC(N)=O)C(=O)NC2C(=O)NC3C(=O)NC(C(=O)NC(C(=O)O)c4cc(O)cc(O)c4-c4cc3ccc4O)C(OC3CC(C)(N)C(O)C(C)O3)c3ccc(c(Cl)c3)Oc3cc2cc(c3OC2OC(CO)C(O)C(O)C2OC2CC(C)(NCc3ccc(-c4ccccc4[N+](=O)[O-])c([N+](=O)[O-])c3)C(O)C(C)O2)Oc2ccc(cc2Cl)C1O (stereo not drawn) [Compound 213, 3-nitro-4-[2-nitrophenyl]benzyl]

SMILES | MIC [1] [µg/mL] | MIC [2] [µg/mL] | MIC [3] [µg/mL]
C=CCOc1ccc(CNC2(C)CC(OC3C(Oc4c5cc6cc4Oc4ccc(cc4Cl)C(OC4CC(C)(N)C(O)C(C)O4)C4NC(=O)C(NC(=O)C6NC(=O)C(CC(N)=O)NC(=O)C(NC(=O)C(CC(C)C)NC)C(O)c6ccc(c(Cl)c6)O5)c5ccc(O)c(c5)-c5c(O)cc(O)cc5C(C(=O)O)NC4=O)OC(CO)C(O)C3O)OC(C)C2O)cc1 (stereo not drawn) [Compound 7, 4-allyloxybenzyl] | 0.5 (≈ 0.288 µM) | 1 (≈ 0.575 µM) | 0.125 (≈ 0.0719 µM)
